{"source": "patent US10220040B2", "about": "“Compounds, compositions and methods useful for cholesterol mobilization” (Cerenis Therapeutics Holding SA, priority 2010, dated 2019)", "key": {"apoE −/− mice": {"system": "apoE −/− mice", "test": "ApoE−/− mice flow cessation model (ligated carotid, Western diet)", "type": "in vivo", "excerpt": "FIG. 17A-J: Dose-response effect of P2Y13 agonist on atherosclerotic plaque progression in ApoE^−/− mice. ApoE^−/− mice (n=7) were ligated on the upper part of the left carotids. On the day of the surgery the animals were placed on a Western diet and given an oral gavage of vehicle or increasing doses of Compound IIa. Ligated carotids were lipid extracted in 2:1 chloroform/methanol. FIG. 17A: the concentrations in unesterified cholesterol (dark bars) and total cholesterol (superimposed gray bars) were measured by HPLC. FIG. 17E and FIG. 17H: hematoxylin eosin staining of longitudinal sections of ApoE^−/− mice carotids. FIG. 17F and FIG. 17I: Oil Red O staining of longitudinal sections of ApoE^−/− mice carotids. FIG. 17G and FIG. 17J: CD-68 antibody staining of longitudinal sections of ApoE^−/− mice carotids. FIG. 17B: quantification of the intima/media ratio (n=10). FIG. 17C: Oil Red O positive staining quantification (n=10). FIG. 17D: CD68 antibody staining quantification (n=10). The mice were dosed for 2 weeks with vehicle (FIG. 17E, FIG. 17F and FIG. 17G) or Compound IIa at 100 μg/kg (FIG. 17H, FIG. 17I and FIG. 17J).\nApoE^−/− mice “flow cessation model”: Left carotid of apoE^−/− mice were ligatured and placed on Western diet. These mice were given Compound IIa once a day at 100 μg/kg (0.5% CMC, 0.2% Tween80) for 2 weeks.\nThe left carotid fixed in formalin was embedded in OCT and frozen at −20° C. Four step frozen sections of 50 μm separated one from the other were processed and stained with Oil red O (ORO). Macrophages were detected using primary rat monoclonal anti CD-68 antibody (Abcam).\nThe effect of the stimulation of the P2Y13r pathway by the agonists on the atherosclerotic plaque lesions in apoE −/− mice that are very susceptible to develop atherosclerosis on a short term Western (i.e. high-cholesterol) diet was investigated. […] The quantification of plaque components by histo-pathological analysis of the treated carotids with hematoxylin-eosin (FIG. 17B, E, H), oil-red O staining (FIG. 17C, F, I) and with CD68 antibody (specific of the macrophages), (FIG. 17D, G, J) further confirmed this observation."}, "[1]": {"system": "P2Y13 knock-down Hepa 1-6 cells", "test": "HDL uptake on P2Y13 knock-down Hepa 1-6 cells", "type": "cell-based, mouse", "conditions": "in presence of Compound IIa (1 μM); doxycycline 72 hours; p<0.005", "method": "FIG. 15: HDL uptake on P2Y13 knock-down Hepa 1-6 cells. Hepa 1-6 cells transduced with lentiviral particles coding the P2Y13 shRNA were induced by the addition of doxycycline for 72 hours. Cells were incubated for 10 min at 37° C. with 75 μg/ml ^3H cholesterol ether HDL and Compound IIa (1 μM). Data are expressed as the percentage of internalized radioactivity with respect to the control value (set as […]).*p<0.05, **p<0.005.\nIn order to relate the specific P2Y13 HDL uptake to the illustrative compounds of the invention, a knock-down P2Y13 in a mouse liver cell line (Hepa 1-6) was investigated. Lentiviral particles coding for the mouse P2Y13 shRNA and inducible by the addition of doxycycline onto the cells (pTRIPZ vector from Open Biosystem) were used. In presence of doxycycline, a decrease of the P2Y13 mRNA (FIG. 11) was observed. The uptake of HDL on this cell line was measured in the presence and the absence of Compound IIa and doxycycline (FIG. 12). A significant decrease of HDL uptake (8.5%) was observed when the cells were treated with doxycycline (group vehicle—p<0.05).\nTransduced Hepa 1-6 cells were plated at 300,000 cells/well in 6×-well plates. […]\nThe lentiviral production in HEK 293T and authorization for lentiviral production was obtained by Vectalys. […] 24 hours after transduction, the number of cells was counted. […]"}}, "data": [{"smiles": "CN(C)c1ncc(CN2CCC(c3cc(O)nc(N4CCOCC4)n3)CC2)cn1", "note": "[Compound IIa, 6-[1-(2-Dimethylaminopyrimidin-5-ylmethyl)-piperidin-4-yl]-2-morpholin-4-yl-pyrimidin-4-ol]", "values": [{"measurement": "cholesterol deposit in non-inflammatory right carotids", "setting": "apoE −/− mice; 100 μg/kg, vehicle 18.2+/−3.6", "value": "7.5+/−3.4 nmole/mg of tissue"}, {"measurement": "progression of the atherosclerosis lesions (lesion cholesterol content) compared to control animals", "setting": "apoE −/− mice; oral dosing for 2 weeks along with high-cholesterol diet, ligated carotid", "value": "dose-dependent inhibition"}, {"measurement": "inhibition of the atherosclerosis progression in mice", "setting": "apoE −/− mice; summary statement", "value": "dramatic effect"}, {"measurement": "lipid content of the carotids (staining)", "setting": "apoE −/− mice; treated animals, 2 weeks", "value": "decrease"}, {"measurement": "decrease of HDL uptake when cells were treated with doxycycline (P2Y13 knock-down)", "setting": "[1]", "value": 17.5, "unit": "%"}]}]}
